Consider 5 molecules from patent US9670200B2, “Quaternary ammonium salt prodrugs” (Alkermes Pharma Ireland Limited, priority 2010, dated 2017).

A short description of data set [1]: Pharmacokinetic evaluation of asenapine and asenapine prodrugs in rats. It counts as in vivo, Sprague-Dawley rats. Conditions: rat, 10 mg/rat IM. On the procedure:
Animals: 18 Male Sprague-Dawley rats (Charles River Laboratories, Wilmington, Mass.) were used in the study. Three groups of 6 rats were used and are referred to in this study as Groups A, B and C. Rats were approximately 350-375 g at time of arrival. Rats are housed 2 per cage with ad libitum chow and water. Environmental conditions in the housing room: 64-67° F., 30% to 70% relative humidity, and 12:12-h light: dark cycle. All experiments were approved by the institutional animal care and use committee.
Test Compounds: The following formulations of Asenapine parent drug and prodrug compounds of the invention were used in the study.
Pharmacokinetics study: Rats were dosed IM by means of a 23 gauge, 1 in. needle with 1 cc syringe 0.3 mL suspension was withdrawn from the vial containing the test compound. The rat was injected in the muscles of the hind limb after anesthesia with isoflurane. Blood samples were collected via a lateral tail vein after brief anesthesia with Isoflurane. A 271/2 G needle and 1 cc syringe without an anticoagulant was used for the blood collection. Approximately 350 μL of whole blood was collected at each sampling time point of 6 hours, 24 hours and 2, 5, 7, 9, 12, 14, 21, 28, 35 days after administration. Once collected, whole blood was immediately transferred to tubes containing K2 EDTA, inverted 10-15 times and immediately placed on ice. The tubes were centrifuged for 2 minutes at >14,000 g′ s (11500 RPMs using Eppendorf Centrifuge 5417C, F45-30-11 rotor) at room temperature to separate plasma. Plasma samples were transferred to labeled plain tubes (MICROTAINER®; MFG# BD5962) and stored frozen at <−70° C.
Drug concentrations in plasma samples were analyzed by liquid chromatography-mass spectroscopy using appropriate parameters for each compound. Half-life, volume of distribution, clearance, maximal concentration, and AUC were calculated by using WinNonlin version 5.2 software (Pharsight, St. Louis, Mo.).

The text on data set [2]: At pH 4 and 5, 0.1 M citrate buffers were used, while for pH 6, 7 and 8a set of 0.1 M phosphate buffers were used. Each buffer also contained 0.2 M NaCl. No cosolvents or other potentially solubilizing components were included. Buffer preparations were subdivided in order to individually test the solubility of only one material in a given buffer sample.
Data set [3] can be described thus: Solution stability of asenapine prodrugs as a function of pH. Format: physicochemical. The note with it: 0.01M buffers pH 2.11-9.01 with acetonitrile, 25° C., HPLC at 1, 4, 10, 24 hours; compared with asenapine octanoate (FIGS. 1 and 2). On the procedure:
The asenapine derived prodrugs were prepared at approximately 300 ug/mL in buffers with acetonitrile (see table of buffers below). The initial ratio of prodrug/parent was measured using a freshly prepared solution in unbuffered water. Acetonitrile was titrated into all samples as needed to ensure the complete dissolution of the compounds. The amount of acetonitrile varied depending on the solubility of each compound (see Note 1). 1.5 mL of each stability sample was transferred into a HPLC vial and the vials were maintained at 25° C. in the temperature controlled sample compartment of the HPLC. Each sample was assayed by HPLC after 1, 4, 10, and 24 hours for prodrug and asenapine content (see Note 2).
The fraction of prodrug remaining at each time point was calculated as Fraction Prodrug=(HPLC Area of Prodrug)/(HPLC area of prodrug+asenapine)(see Note 3). The loss of prodrug was then fit to the equation for first order decay: Fraction Prodrug=(Initial Fraction prodrug)*e^−kt where t=time (in hours) and k is the rate constant for decay. Finally, the half-lives were calculated as: t1/2=0.693/k
Note 1: The acetonitrile concentration is not expected to have a large impact on the degradation rate since the rate follows first order decay with respect to compound (ie, the rate constant is independent of the concentration). […]

Read-outs that look alike come from different tables or passages of the source. Some results are limits rather than exact numbers.

In the case of `CCC(C)(C)C(=O)OC[N+]1(C)CC2c3ccccc3Oc3ccc(Cl)cc3C2C1.[I-]` (stereo not drawn) [ASN-83, 5-chloro-2-(((2,2-dimethylbutanoyl)oxy)methyl)-2-methyl-2,3,3a,12b-tetrahydro-1H-dibenzo[2,3:6,7]oxepino[4,5-c]pyrrol-2-ium iodide], the “Cmax of the Asenapine released” value in data set [1] (plasma, compared with parent Asenapine formulation and Asenapine palmitate prodrug (FIG. 3)) is reported as “lower”. In the case of `CCC(C)(C)C(=O)OC[N+]1(C)CC2c3ccccc3Oc3ccc(Cl)cc3C2C1.[I-]` (stereo not drawn) [Asenapine dimethyl butyrate prodrug, asenapine (α,α)-dimethyl butyrate iodide], the “decrease in plasma concentration over all the time points sampled” value in data set [1] (6 hours to 35 days, compared with Asenapine or Asenapine palmitate prodrug) is listed as “more gradual decrease”. Further, in data set [1] (compared with Asenapine or Asenapine palmitate prodrug), the “duration of asenapine pharmacokinetics in the animals” value is “longer duration”. Turning to `CCCCCCCCCCCCC(C)(C)C(=O)OC[N+]1(C)CCN(C2=Nc3ccccc3Nc3sc(C)cc32)CC1.[I-]` [Compound 18, 1-(((2,2-dimethyltetradecanoyl)oxy)methyl)-1-methyl-4-(2-methyl-10H-benzo[b]thieno[2,3-e][1,4]diazepin-4-yl)piperazin-1-ium iodide], the “variation in solubility across the pH range studied” value in data set [2] is reported as “less than 2 fold”. On to `CC(C)(C)C(=O)OC[N+]1(C)CC2c3ccccc3Oc3ccc(Cl)cc3C2C1.[Cl-]` (stereo not drawn) [asenapine pivalate, asenapine pivalate prodrug], for which the “Solution stability as a function of pH” value in data set [3] is listed as “more stable”. In the case of `Cc1cc2c(s1)Nc1ccccc1N=C2N1CCN(C)CC1.O.O=C(O)c1cc2ccccc2c(Cc2c(O)c(C(=O)O)cc3ccccc23)c1O` [olanzapine pamoate salt, olanzapine pamoate, reference compound], in data set [2] (room temperature, 0.1 M citrate (pH 4, 5) or phosphate (pH 6, 7, 8) buffers with 0.2 M NaCl, pH range 4-9 (FIG. 4)), the “variation in solubility across the pH range studied” value is on record as greater than 10 fold.
